Assay results as given in ChEMBL document CHEMBL4811222, “Antitumor Activity of Asperphenin B by Induction of Apoptosis and Regulation of Glyceraldehyde-3-phosphate Dehydrogenase in Human Colorectal Cancer Cells” (J Nat Prod, 2021).
Activity calls are given as the source filed them. The calls are words filed in the database; no cut-off is given here.

Experiments:
RKO [1] = assay: Induction of apoptosis in human RKO cells assessed as increase in cleaved caspase 3 expression at 2.5 uM measured upto 48 hrs by Western blotting analysis; type: functional, cell-based; settings: time hrs <=48
RKO [2] = assay: Induction of cell cycle arrest in human RKO cells assessed as accumulation at G0/G1 phase at 5 uM after 24 hrs by RNase A/propidium iodide staining based flow cytometric analysis (reference value: 51.49 %); type: functional
RKO [3] = assay: Induction of cell cycle arrest in human RKO cells assessed as accumulation at G0/G1 phase at 2.5 uM after 48 hrs by RNase A/propidium iodide staining based flow cytometric analysis (reference value: 60.58 %); type: functional
RKO [4] = assay: Induction of cell cycle arrest in human RKO cells assessed as accumulation at S phase at 2.5 uM after 24 hrs by RNase A/propidium iodide staining based flow cytometric analysis (reference value: 13.33 %); type: functional
HCT-116 [5] = assay: Antiproliferative activity against human HCT-116 cells assessed as inhibition of cell growth incubated for 72 hrs by SRB assay; type: functional, cell-based; settings: HCT-116, 72 h
RKO [6] = assay: Induction of cell cycle arrest in human RKO cells assessed as upregulation of cyclin B1 expression measured after 24 hrs by Western blot analysis; type: functional, cell-based; settings: dose 1.25-5 µM
RKO [7] = assay: Induction of apoptosis in human RKO cells assessed as total apoptotic cells at 5 uM after 48 hrs by Annexin V/PI staining based flow cytometric analysis; type: functional
RKO [8] = assay: Antitumor activity against human RKO cells implanted in BALB/c nude mouse assessed as suppression of Ki67 expression level in tumor lysates at 4 to 8 mg/kg, ip administered three times per week for 21 days by Western blotting analysis; type: functional, organism-based; settings: Neoplasm, dose 4-8 mg/kg, time 21.0 day
RKO [9] = assay: Induction of cell cycle arrest in human RKO cells assessed as accumulation at G0/G1 phase at 2.5 uM after 12 hrs by RNase A/propidium iodide staining based flow cytometric analysis (reference value: 60.58 %); type: functional
RKO [10] = assay: Induction of cell cycle arrest in human RKO cells assessed as accumulation at S phase at 5 uM after 24 hrs by RNase A/propidium iodide staining based flow cytometric analysis (reference value: 24.20 %); type: functional
HCT-116 [11] = assay: Suppression of GAPDH expression in […] at 3 to 6 uM after 24 hrs by Western blotting analysis; type: functional, cell-based; settings: dose 3-6 µM
RKO [12] = assay: Antitumor activity against human RKO cells implanted in BALB/c nude mouse assessed as inhibition of tumor growth at 4 mg/kg, ip administered three times per week for 21 days and measured every 3 to 4 days by electronic caliper method; type: functional; settings: 504 h, time 21 day, read-out: TGI
HCT-116 [13] = assay: Antimigratory activity against human HCT116 cells implanted in nude mouse assessed as inhibition of liver cells migration after 24 hrs by wound healing assay; type: functional, cell-based; settings: dose 3-6 µM
RKO [14] = assay: Induction of cell cycle arrest in human RKO cells assessed as accumulation at G0/G1 phase at 2.5 uM after 24 hrs by RNase A/propidium iodide staining based flow cytometric analysis (reference value: 51.49 %); type: functional
RKO [15] = assay: Induction of apoptosis in human RKO cells assessed as decrease in survivin expression at 2.5 uM by Western blotting analysis; type: functional, cell-based; settings: time 12-48 hrs, TDE = time-dependent effect
LS174T = assay: Antiproliferative activity against human LS174T cells assessed as inhibition of cell growth incubated for 72 hrs by SRB assay; type: functional, cell-based
RKO [16] = assay: Induction of apoptosis in human RKO cells assessed as modulation of survivin expression level after 48 hrs by Western blotting analysis; type: functional, cell-based; settings: dose 2.5-10 µM
HCT-116 [17] = assay: Downregulation of N-Cadherin expression in […] at 3 to 6 uM after 24 hrs by Western blotting analysis; type: functional, cell-based; settings: dose 3-6 µM
CCD-841CoN = assay: Antiproliferative activity against human CCD-841CoN cells assessed as inhibition of cell growth incubated for 72 hrs by SRB assay; type: cell-based
SW480 = assay: Antiproliferative activity against human SW480 cells assessed as inhibition of cell growth incubated for 72 hrs by SRB assay; type: functional, cell-based; settings: SW480, 72 h
RKO [18] = assay: Induction of cell cycle arrest in human RKO cells assessed as accumulation at S phase at 2.5 uM after 12 hrs by RNase A/propidium iodide staining based flow cytometric analysis (reference value: 13.33 %); type: functional
RKO [19] = assay: Induction of cell cycle arrest in human RKO cells assessed as upregulation of phospho-Chk2 expression at 1.25 to 5 uM measured after 24 hrs by Western blot analysis; type: functional, cell-based; settings: dose 1.25-5 µM
RKO [20] = assay: Induction of E-cadherin expression in human RKO cells after 24 hrs by Western blotting analysis; type: functional, cell-based
RKO [21] = assay: Induction of apoptosis in human RKO cells assessed as increase in p53 level at 2.5 uM measured upto 48 hrs by Western blotting analysis; type: functional, cell-based; settings: time hrs <=48
RKO [22] = assay: Induction of apoptosis in human RKO cells assessed as total apoptotic cells at 1.25 uM after 48 hrs by Annexin V/PI staining based flow cytometric analysis; type: functional
[23] = target: Glyceraldehyde-3-phosphate dehydrogenase (Homo sapiens) (UniProt P04406); assay: Inhibition of GAPDH activity (unknown origin) after 1 hr; settings: dose 0.01-10 µM
RKO [24] = assay: Induction of cell cycle arrest in human RKO cells assessed as accumulation at S phase at 2.5 uM after 24 hrs by RNase A/propidium iodide staining based flow cytometric analysis (reference value: 24.20 %); type: functional
[25] = Toxicity in BALB/c nude mouse implanted with human RKO cells assessed as change in body weight at 4 to 8 mg/kg, ip administered three times per week for 21 days; type: organism-based; settings: in vivo, 504 h, dose 4-8 mg/kg, time 21 day
RKO [26] = assay: Induction of cell cycle arrest in human RKO cells assessed as accumulation at G2/M phase at 2.5 uM after 36 hrs by RNase A/propidium iodide staining based flow cytometric analysis (reference value: 24.63 %); type: functional
RKO [27] = assay: Induction of cell cycle arrest in human RKO cells assessed as accumulation at G2/M phase at 5 uM after 24 hrs by RNase A/propidium iodide staining based flow cytometric analysis (reference value: 24.38 %); type: functional
RKO [28] = assay: Antitumor activity against human RKO cells implanted in ip dosed BALB/c nude mouse assessed as suppression of GAPDH expression in tumor lysates administered three times per week for 21 days by Western blotting analysis; type: functional, organism-based; settings: Neoplasm, time 21.0 day
CCD-18Co = assay: Antiproliferative activity against human CCD-18Co cells assessed as inhibition of cell growth incubated for 72 hrs by SRB assay; type: cell-based
RKO [29] = assay: Antitumor activity against human RKO cells implanted in BALB/c nude mouse assessed as inhibition of tumor growth at 8 mg/kg, ip administered three times per week for 21 days and measured every 3 to 4 days by electronic caliper method; type: functional; settings: 504 h, time 21 day, read-out: TGI
RKO [30] = assay: Induction of cell cycle arrest in human RKO cells assessed as accumulation at sub-G1 phase at 2.5 uM after 24 hrs by RNase A/propidium iodide staining based flow cytometric analysis (reference value: 0.89 %); type: functional
RKO [31] = assay: Induction of cell cycle arrest in human RKO cells assessed as accumulation at S phase at 1.25 uM after 24 hrs by RNase A/propidium iodide staining based flow cytometric analysis (reference value: 24.20 %); type: functional

Glyceraldehyde-3-phosphate dehydrogenase (Homo sapiens), sequence (P04406 2-335 limits assumed): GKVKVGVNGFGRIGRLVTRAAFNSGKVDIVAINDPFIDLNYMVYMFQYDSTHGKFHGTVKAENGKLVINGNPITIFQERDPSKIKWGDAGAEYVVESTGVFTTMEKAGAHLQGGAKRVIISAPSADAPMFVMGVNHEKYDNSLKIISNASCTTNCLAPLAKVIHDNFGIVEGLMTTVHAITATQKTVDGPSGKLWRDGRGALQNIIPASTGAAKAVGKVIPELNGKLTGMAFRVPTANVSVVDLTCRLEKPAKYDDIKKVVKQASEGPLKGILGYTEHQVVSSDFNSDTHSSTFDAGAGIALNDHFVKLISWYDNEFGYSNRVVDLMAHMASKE

- IC50 (HCT-116 [5]): 3.12 µM
- IC50 (SW480): 2.37 µM
- inhibition [23]: Dose-Dependent Effect
SMILES: CCCCCCCCC[C@@H](O)CC(=O)N[C@@H](CC(N)=O)C(=O)N[C@@H](CCC(N)=O)C(=O)N[C@H](CC(=O)c1cc(C)cc(O)c1C(=O)c1c(O)cccc1O)CC(C)C
- Activity (RKO [1]): Active
- Activity (RKO [2]): 25.55%
- Activity (RKO [3]): 30.27%
- Activity (RKO [4]): 16.64%
- Activity (RKO [6]): Dose-Dependent Effect
- Activity (RKO [7]): 36.58%
- Activity (RKO [8]): Active
- Activity (RKO [9]): 54.66%
- Activity (RKO [10]): 22.13%
- Activity (HCT-116 [11]): Active
- inhibition in vivo at 4 mg/kg (RKO [12]): 32.8%
- inhibition (HCT-116 [13]): Dose-Dependent Effect
- Activity (RKO [14]): 32.4%
- Activity (RKO [15]): Tde
- IC50 (LS174T): 6.36 µM
- Activity (RKO [16]): Dose-Dependent Effect
- Activity (HCT-116 [17]): Active
- IC50 (CCD-841CoN): 47.2 µM
- Activity (RKO [18]): 16.82%
- Activity (RKO [19]): Active
- Activity (RKO [20]): Active
- Activity (RKO [21]): Active
- Activity (RKO [22]): 7.85%
- Activity (RKO [24]): 23.35%
- Activity [25]: Non-Toxic
- Activity (RKO [26]): 63.62%
- Activity (RKO [27]): 51.77%
- Activity (RKO [28]): Dose-Dependent Effect
- IC50 (CCD-18Co): 39.1 µM
- inhibition in vivo at 8 mg/kg (RKO [29]): 57.1%
- Activity (RKO [30]): 1.22%
- Activity (RKO [31]): 23.61%
